Key:
[1] = Photophysical measurements of photosensitizers (λmax, ε, φ f); format: physicochemical; set-up: λmax: unit not given here; details: for λmax: band I absorption maximum; for ε: at λmax
[2] = tested on: Chinese hamster lung fibroblasts (V-79); assay: DC(50)(light): colony-formation phototoxicity after laser irradiation; format: cell-based; details: V-79 cells; sensitizer incubation 16-24 hours; 12.5 mW/cm^2, total light dose 1.25 J/cm^2; concentration for lethal damage to 50% of cells
Procedure: (§1) For the Biological Evaluation, Chinese hamster lung fibroblasts (V-79) obtained from the American Tissue Culture Collection were grown in D-MEM supplemented with 10% fetal calf serum at 37° C., 5% CO2, and 95% humidity. These cells were used to evaluate the sensitizers for dark and light toxicity, and cellular uptake. Medium was replaced with 5% fetal calf serum supplemented medium during sensitizer incubations.
In the first phase, the combination of intracellular and extracellular concentration of photosensitizer required for lethal damage to 50% of the cells in culture (DC(50)) on light exposure was determined by plating cells at a density of 100 cells/cm^2 and incubating for 1-3 hours to allow attachment of the cells. Cells were incubated with various concentrations of sensitizer ([C]=0.01-1.0 μM) delivered in non-toxic concentrations of DMSO/5% dextrose solution or in some cases in egg yolk phosphatidase (EYP) for 16-24 hours. The cells were then irradiated with laser light using a tunable Lexel argon pumped dye laser at the band I absorption of the photosensitizer. Total power density was adjusted to 12.5 mW/cm^2 and a total light dose of 1.25 J/cm^2 was applied. After treatment, cells were washed with HBSS, refed with 10% FBS supplemented DMEM with phenol red and incubated for 3-5 days to allow colony formation. Cells were fixed in methanol, stained with Giemsa, and colonies were counted. Plating efficiency was determined using a control colony and the mean percent survival fraction plotted against the sensitizer concentration and the DC50 established (Table 5).

BA mammary carcinoma = assay: In vivo assay of photosensitizers on tumors (PDT tumor cure); set-up: species or system C3H/HeJ mice; details: light dose 200 J/cm^2, n = 10
Procedure: Female C3H/HeJ mice (8-9 weeks old) were subjected to trochar implantation of BA mammary carcinoma on the hind leg of the animals. Animals having tumors ca 5 mm in diameter were entered into the in vivo screen. For each new photosensitizer, a group of at least three mice were used to ascertain a drug dose that caused a response as described in table 3 when treated with the appropriate wavelength of light. Generally in this series, animals were injected with 1 μ mole of sensitizer/Kg of body weight, formulated in egg yolk phosphatidate (EYP), via the tail vein. At a defined time period later the animals were irradiated with light from a laser source tuned to the wavelength of activation of the sensitizer. The power density of the laser was set at 75 mW/cm^2 with a total light dose of 200 J/cm^2.

V-79 cells = assay: Cellular uptake of photosensitizer; format: in vitro ADME, Chinese hamster; details: 10 μM photosensitizer in EYP
Procedure: as §1
Several photosensitizers were screened by a standard cellular uptake protocol. A 10 μM stock solution of photosensitizer in EYP was prepared by dilution of the photosensitizer stock (1 mM) using 5% dextrose solution. […] Following incubation the cells were washed with PBS (1 mL) three times, then washed with HBSS (1 mL) and detached using 100 μL of trypsin. Individual wells containing cells were lysed by three freeze thaws.
Spiking experiments were performed to confirm that the sensitizer could be adequately recovered using standard procedures. The sensitizer was then extracted from the cell debris with DMSO, centrifuged and the supernatant examined for fluorescence. Sensitizer concentration was determined by comparison to a standard curve. Results are expressed in ug/ug protein. Untreated monolayers are used to determine cell count. Treated cells of each time point were used to determine the protein concentration using the BCA assay. Results shown are the mean of the three experiments for each timepoint.

[3] = drug dose 0.05 μm/Kg via tail vein in EYP, treatment 24 post injection
[4] = drug dose 3 μm/Kg via tail vein in EYP, treatment 24 post injection
[5] = drug dose 0.1 μm/Kg via tail vein in EYP, treatment 24 post injection
[6] = drug dose 2.5 μm/Kg via tail vein in EYP, treatment 24 post injection

Row | Compound | λmax [1] | IC50 [2] | φ f [1] | ε [1] | further results
1 | CCC1=C(C)C2=NC1=Cc1c(C)c3c4[n]1[In]([Cl])[n]1c(c(C)c(C(C)=O)c1=C2)=CC1=NC(=C4CC3=O)[C@@H](CCC(=O)OC)[C@@H]1C [Compound 26, Indium 2-desvinyl-2-acetyl pyropheophorbide] | 672 | 60 nM | – | – | % Cure (30 days) (BA mammary carcinoma; drug dose 0.125 μm/Kg via tail vein in EYP, treatment 8 post injection): 90%
2 | CCC1=C(CC)C2=NC1=Cc1c(CC)c(CC)c3[n]1[In]([Cl])[n]1c(c(CC)c(CC)c1=c1cc(S(=O)(=O)NC(CO)(CO)CO)cc4c1=NC(=C3)C4(CC)CC)=C2 [Compound 19, InOEBCSO2NHC(CH2OH)3] | 684 | 40 nM | 0.03 | 52,000 M^−1 cm^−1 | –
3 | C=Cc1c(C)c2cc3nc(c4c5[nH]c(cc6nc(cc1[nH]2)C(C)=C6CC)c(C)c5C(=O)C4)[C@@H](CCC(=O)OC)[C@@H]3C [Compound 22] | – | – | – | – | % Cure (30 days) (BA mammary carcinoma; drug dose 10.6 μm/Kg via tail vein in EYP, treatment 3 post injection): 50%
4 | CCC1=C(CC)C2=NC1=Cc1c(CC)c(CC)c3[n]1[In]([Cl])[n]1c(c(CC)c(CC)c1=c1cc(S(=O)(=O)NCCCCC(N)C(=O)O)cc4c1=NC(=C3)C4(CC)CC)=C2 (centres unmarked) [Compound 21, InOEBCSO2NH (CH2)4CH(NH2)CO2H] | 684 | 40 nM | 0.03 | 52,000 M^−1 cm^−1 | –
5 | CCC1=C(CC)C2=NC1=Cc1c(CC)c(CC)c3[n]1[In]([Cl])[n]1c(c(CC)c(CC)c1=c1cc(S(=O)(=O)NCCN(C)C)cc4c1=NC(=C3)C4(CC)CC)=C2 [Compound 15] | 684 | 50 nM | ˜0.03 | 52,000 M^−1 cm^−1 | % Cure (30 days) (BA mammary carcinoma; [3]): 100%
6 | CCC1=C(CC)c2cc3[nH]c(c(CC)c3CC)c3cccc4c3nc(cc3[nH]c(cc1n2)c(CC)c3CC)C4(CC)CC [Compound 1, Octaethylbenzochlorin] | 658 | > 1000 nM | 0.347 | 35,000 M^−1 cm^−1 | % Cure (30 days) (BA mammary carcinoma; [4]): 60%
7 | CCC1=C(CC)C2=NC1=Cc1c(CC)c(CC)c3[n]1[Zn][n]1c(c(CC)c(CC)c1=c1cccc4c1=NC(=C3)C4(CC)CC)=C2 [Compound 4] | 678 | > 1000 nM | 0.150 | 57,000 M^−1 cm^−1 | % Cure (30 days) (BA mammary carcinoma; [4]): 0%
8 | CCC1=C(CC)C2=NC1=Cc1c(CC)c(CC)c3[n]1[In]([Cl])[n]1c(c(CC)c(CC)c1=c1cc(S(=O)(=O)NCCCS)cc4c1=NC(=C3)C4(CC)CC)=C2 [Compound 18] | 684 | 40 nM | 0.03 | 52,000 M^−1 cm^−1 | –
9 | CCC1=C(C)C2=NC1=Cc1c(C)c3c4[n]1[Pd][n]1c(c(C)c(C(C)=O)c1=C2)=CC1=NC(=C4CC3=O)[C@@H](CCC(=O)OC)[C@@H]1C [Compound 28] | 653 | 50 nM | – | – | % Cure (30 days) (BA mammary carcinoma; drug dose 0.2 μm/Kg via tail vein in EYP, treatment 8 post injection): 80%
10 | CCC1=C(CC)C2=NC1=Cc1c(CC)c(CC)c3[n]1[In]([Cl])[n]1c(c(CC)c(CC)c1=c1cc(S(=O)(=O)NCCCO)cc4c1=NC(=C3)C4(CC)CC)=C2 [Compound 10, InOEBCSO2NH(CH2)3OH] | 684 | 100 to 125 nM | 0.027 | 52,000 M^−1 cm^−1 | % Cure (30 days) (BA mammary carcinoma; [5]): 100%
11 | CCC1=C(CC)C2=NC1=Cc1c(CC)c(CC)c3[n]1[In]([Cl])[n]1c(c(CC)c(CC)c1=c1cc(S(=O)(=O)NCC(=O)O)cc4c1=NC(=C3)C4(CC)CC)=C2 [Compound 20] | 684 | 40 nM | – | 52,000 M^−1 cm^−1 | –
12 | CCC1=C(CC)c2cc3[nH]c(c(CC)c3CC)c3cc(S(=O)(=O)NCCCO)cc4c3nc(cc3[nH]c(cc1n2)c(CC)c3CC)C4(CC)CC [Compound 2, OEBCSO2NH(CH2)3OH] | 665 | 500 to 1000 nM | 0.230 | 34,000 M^−1 cm^−1 | % Cure (30 days) (BA mammary carcinoma; [6]): 80%; Cellular uptake (24 hrs) (V-79 cells): 0.129 ρmole/μg protein
13 | C=Cc1c(C)c2[n]3c1=CC1=NC(=Cc4c(C)c5c([n]4[In]3[Cl])C(=C3N=C(C=2)[C@@H](C)[C@@H]3CCC(=O)OC)CC5=O)C(CC)=C1C [Compound 24] | – | – | – | – | % Cure (30 days) (BA mammary carcinoma; drug dose 0.2 μm/Kg via tail vein in EYP, treatment 6 or 8 post injection): 80%
14 | CCC1=C(CC)C2=NC1=Cc1c(CC)c(CC)c3[n]1[In]([Cl])[n]1c(c(CC)c(CC)c1=c1cccc4c1=NC(=C3)C4(CC)CC)=C2 [Compound 9, In Octaethylbenzochlorin] | 691 | 100 nM | 0.028 | 53,000 M^−1 cm^−1 | % Cure (30 days) (BA mammary carcinoma; [5]): 70%; Cellular uptake (24 hrs) (V-79 cells): 0.336 ρmole/μg protein
15 | Indium 2-desvinyl-2-formyl pyropheophorbide [Compound 27] | 683 | 50 nM | – | – | % Cure (30 days) (BA mammary carcinoma; drug dose 0.1 μm/Kg via tail vein in EYP, treatment 8 post injection): 90%
16 | tin octaethylbenzochlorin [Compound 6] | 691 | 80 to 160 nM | 0.044 | 54,000 M^−1 cm^−1 | % Cure (30 days) (BA mammary carcinoma; drug dose 0.75 μm/Kg via tail vein in EYP, treatment 24 post injection): 80%; Cellular uptake (24 hrs) (V-79 cells): 0.501 ρmole/μg protein
17 | C=Cc1c(C)c2[n]3c1=CC1=NC(=Cc4c(C)c5c([n]4[Sn]3([Cl])[Cl])C(=C3N=C(C=2)[C@@H](C)[C@@H]3CCC(=O)OC)CC5=O)C(CC)=C1C [Compound 23] | – | > 1000 nM | – | – | % Cure (30 days) (BA mammary carcinoma; drug dose 2.0 μm/Kg via tail vein in EYP, treatment 24 or 6 post injection): 0%
18 | CCC1=C(CC)C2=NC1=Cc1c(CC)c(CC)c3[n]1[In]([Cl])[n]1c(c(CC)c(CC)c1=c1cc(C)cc4c1=NC(=C3)C4(CC)CC)=C2 [Compound 11] | 687 | – | 0.034 | 54,000 M^−1 cm^−1 | % Cure (30 days) (BA mammary carcinoma; drug dose 0.15 μm/Kg via tail vein in EYP, treatment 24 post injection): 90%
19 | CCC1=C(CC)C2=NC1=Cc1c(CC)c(CC)c3[n]1[In]([Cl])[n]1c(c(CC)c(CC)c1=c1cc(S(=O)(=O)NCCCCCO)cc4c1=NC(=C3)C4(CC)CC)=C2 [Compound 13] | 684 | 40 nM | ˜0.03 | 52,000 M^−1 cm^−1 | % Cure (30 days) (BA mammary carcinoma; drug dose 0.075 μm/Kg via tail vein in EYP, treatment 24 post injection): 80%
20 | CCC1=C(CC)c2cc3[nH]c(c(CC)c3CC)c3cc(C)cc4c3nc(cc3[nH]c(cc1n2)c(CC)c3CC)C4(CC)CC [Compound 3] | 658 | – | 0.35 | 35,000 M^−1 cm^−1 | % Cure (30 days) (BA mammary carcinoma; [6]): 60%
21 | CCC1=C(CC)C2=NC1=Cc1c(CC)c(CC)c3[n]1[In]([Cl])[n]1c(c(CC)c(CC)c1=c1cc(S(=O)(=O)NCCOCCOCCOC)cc4c1=NC(=C3)C4(CC)CC)=C2 [Compound 16] | 684 | 40 nM | ˜0.03 | 52,000 M^−1 cm^−1 | % Cure (30 days) (BA mammary carcinoma; [3]): 80%
22 | CCC1=C(CC)C2=NC1=Cc1c(CC)c(CC)c3[n]1[In]([Cl])[n]1c(c(CC)c(CC)c1=c1cc(S(=O)(=O)N(CCO)CCO)cc4c1=NC(=C3)C4(CC)CC)=C2 [Compound 12] | 684 | 40 nM | ˜0.03 | 52,000 M^−1 cm^−1 | % Cure (30 days) (BA mammary carcinoma; [3]): 90%
